# Test results: PubChem BioAssay (NCI)
#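 How tested: cells in 96-well plates exposed to compound for 48 hours at five concentrations. GI50 marks 50% less growth. The concentration for full growth arrest is given as TGI.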
# How the values were obtained:
# Test in all cases: NCI anticancer screen, dose series, 48 h
# DLD-1 colon = tested on: DLD-1 colon
# DMS 114 small cell lung = tested on: DMS 114 small cell lung
# HOP-18 NSCLC = tested on: HOP-18 NSCLC
# LXFL 529 NSCLC = tested on: LXFL 529 NSCLC
# M19-MEL melanoma = tested on: M19-MEL melanoma
# RXF-631 renal = tested on: RXF-631 renal
# MDA-N = tested on: MDA-N
compound,measurement,setting,value
CCCCN(CCCC)C(=O)C(=O)C(C(=O)C(=O)OC)c1nc2ccccc2o1 (stereo unspecified),TGI,DLD-1 colon,> 100 µM
same,TGI,DMS 114 small cell lung,> 100 µM
same,TGI,HOP-18 NSCLC,> 100 µM
same,TGI,LXFL 529 NSCLC,> 100 µM
same,TGI,M19-MEL melanoma,> 100 µM
same,TGI,RXF-631 renal,> 100 µM
CN1C(=O)CNS1(=O)=O,TGI,DLD-1 colon,> 100 µM
same,TGI,DMS 114 small cell lung,> 100 µM
same,TGI,LXFL 529 NSCLC,> 100 µM
same,TGI,RXF-631 renal,> 100 µM
CC[C@@]1(O)C(=O)OCc2c1cc1n(c2=O)Cc2cc3c(OC)cccc3nc2-1,TGI,DLD-1 colon,19.3 µM
same,TGI,DMS 114 small cell lung,0.28 µM
same,TGI,HOP-18 NSCLC,> 100 µM
same,TGI,LXFL 529 NSCLC,> 23.1 µM
same,TGI,M19-MEL melanoma,0.643 µM
same,GI50,MDA-N,> 100 µM
same,TGI,MDA-N,> 100 µM
same,TGI,RXF-631 renal,1.45 µM
N#CCC(=O)N/N=C(/C(=O)Nc1ccccc1)C1C(=O)N(c2ccccc2)N=C1N (stereo unspecified),TGI,DLD-1 colon,> 100 µM
same,TGI,DMS 114 small cell lung,> 100 µM
same,TGI,HOP-18 NSCLC,> 100 µM
same,TGI,LXFL 529 NSCLC,> 100 µM
same,TGI,M19-MEL melanoma,> 100 µM
same,TGI,RXF-631 renal,> 100 µM
Cn1cnc([N+](=O)[O-])c1Sc1nccn1-c1ccccc1,TGI,DLD-1 colon,> 100 µM
same,TGI,DMS 114 small cell lung,91.2 µM
same,TGI,HOP-18 NSCLC,54.3 µM
same,TGI,M19-MEL melanoma,> 100 µM
S=c1sc2sc(=S)sc2s1,TGI,DLD-1 colon,> 100 µM
same,TGI,HOP-18 NSCLC,> 100 µM
same,TGI,LXFL 529 NSCLC,26.9 µM
same,TGI,M19-MEL melanoma,75.6 µM
same,TGI,RXF-631 renal,39.1 µM
CCOC(=O)c1sc(Nc2cc(Cl)ccc2Cl)nc1C,TGI,DLD-1 colon,> 100 µM
same,TGI,DMS 114 small cell lung,> 100 µM
same,TGI,HOP-18 NSCLC,> 100 µM
same,TGI,LXFL 529 NSCLC,> 100 µM
same,TGI,M19-MEL melanoma,> 100 µM
same,TGI,RXF-631 renal,> 100 µM
O=C(O)c1cc(C(=O)C(=O)c2cc(C(=O)O)c(O)c3ccccc23)c2ccccc2c1O,TGI,MDA-N,> 100 µM
CSc1nc(SC)c2c(C)cn(Cc3ccccc3)c2n1,TGI,MDA-N,> 100 µM
CCCC(c1cc(C(C)(C)C)c(O)cc1C)c1cc(C(C)(C)C)c(O)cc1C,TGI,MDA-N,3.91 µM
Cc1cc2c(=O)cc(-c3ccc(Cl)c(Cl)c3)oc2c(C(=O)O)c1C,TGI,DLD-1 colon,> 100 µM
same,TGI,DMS 114 small cell lung,> 100 µM
same,TGI,HOP-18 NSCLC,> 100 µM
same,TGI,LXFL 529 NSCLC,> 100 µM
same,TGI,M19-MEL melanoma,> 100 µM
Cc1ccc(C)c(N2C(=O)C(=O)C(c3nc4ccccc4s3)C(=O)C2=O)c1,TGI,DLD-1 colon,> 100 µM
same,TGI,DMS 114 small cell lung,> 100 µM
same,TGI,LXFL 529 NSCLC,> 100 µM
same,TGI,M19-MEL melanoma,> 100 µM
OC1CCC(COC(c2ccccc2)(c2ccccc2)c2ccccc2)O1 (stereo unspecified),TGI,MDA-N,34.5 µM
Cc1cc2c(cc1C)[n+](=O)c(C(=O)CC(=O)C(=O)Nc1ccccc1C)c(C)n2[O-],TGI,HOP-18 NSCLC,> 100 µM
same,TGI,LXFL 529 NSCLC,> 100 µM
same,TGI,M19-MEL melanoma,> 100 µM
same,TGI,RXF-631 renal,> 100 µM
COC(=O)c1oc([N+](=O)[O-])c(-c2ccccc2)c1-c1ccccc1,TGI,DLD-1 colon,> 100 µM
same,TGI,DMS 114 small cell lung,> 100 µM
same,TGI,HOP-18 NSCLC,> 100 µM
same,TGI,LXFL 529 NSCLC,> 100 µM
same,TGI,M19-MEL melanoma,> 100 µM
same,TGI,RXF-631 renal,> 100 µM
O=[N+]([O-])c1cccc(C=NC23CC4CC(CC(C4)C2)C3)c1,TGI,DLD-1 colon,> 100 µM
same,TGI,DMS 114 small cell lung,> 100 µM
same,TGI,HOP-18 NSCLC,> 100 µM
same,TGI,LXFL 529 NSCLC,> 100 µM
same,TGI,M19-MEL melanoma,> 100 µM
CCOC(=O)Nc1nc(-c2ccccc2)c(C)s1,TGI,MDA-N,> 100 µM
CCOc1ccc(N=C2NC(=O)C(CC(=O)Nc3ccc(Cl)cc3Cl)S2)cc1 (stereo unspecified),TGI,DLD-1 colon,> 100 µM
same,TGI,DMS 114 small cell lung,> 100 µM
same,TGI,LXFL 529 NSCLC,> 100 µM
same,TGI,M19-MEL melanoma,> 100 µM
same,TGI,RXF-631 renal,> 100 µM
COC1OC(CO)C(O)C(NC(=O)N(C)N=O)C1O (stereo unspecified),TGI,DLD-1 colon,> 100 µM
same,TGI,DMS 114 small cell lung,> 100 µM
same,TGI,HOP-18 NSCLC,> 100 µM
same,TGI,LXFL 529 NSCLC,> 100 µM
same,TGI,M19-MEL melanoma,> 100 µM
Cc1ccccc1C(C#N)/C(=N/NC(N)=S)C(=O)Nc1c(C)cccc1C (stereo unspecified),TGI,DLD-1 colon,> 100 µM
same,TGI,DMS 114 small cell lung,> 100 µM
same,TGI,HOP-18 NSCLC,> 100 µM
same,TGI,LXFL 529 NSCLC,> 100 µM
same,TGI,M19-MEL melanoma,> 100 µM
same,TGI,RXF-631 renal,> 100 µM
Cc1cc2c(=O)cc(-c3ccc(O)cc3)oc2c(C(=O)O)c1C,TGI,DLD-1 colon,> 100 µM
same,TGI,DMS 114 small cell lung,> 100 µM
same,TGI,HOP-18 NSCLC,> 100 µM
same,TGI,LXFL 529 NSCLC,> 100 µM
same,TGI,M19-MEL melanoma,> 100 µM
Cc1cc2c(=O)cc(-c3ccc(Cl)cc3Cl)oc2c(C(=O)O)c1C,TGI,DLD-1 colon,> 100 µM
same,TGI,DMS 114 small cell lung,> 100 µM
same,TGI,HOP-18 NSCLC,> 100 µM
same,TGI,LXFL 529 NSCLC,> 100 µM
CC(=O)Nc1ccc(S(=O)(=O)N/N=C/c2cc(I)cc([N+](=O)[O-])c2O)cc1,TGI,DLD-1 colon,> 100 µM
same,TGI,DMS 114 small cell lung,> 100 µM
same,TGI,HOP-18 NSCLC,96.5 µM
same,TGI,M19-MEL melanoma,> 100 µM
same,TGI,RXF-631 renal,> 100 µM
CC(=O)OC1C(COC(N)=O)OC(n2c(-c3ccc(C)cc3)cc(-c3ccccc3)c(C#N)c2=O)C(OC(C)=O)C1OC(C)=O (stereo unspecified),TGI,DLD-1 colon,> 100 µM
same,TGI,HOP-18 NSCLC,> 100 µM
same,TGI,LXFL 529 NSCLC,> 100 µM
same,TGI,M19-MEL melanoma,> 100 µM
same,TGI,RXF-631 renal,> 100 µM
CC(C)c1ccc2c(c1)CCC1C(C)(CN)CCCC21C (stereo unspecified),TGI,MDA-N,2.86 µM
Cc1cc(C)c2c(=O)cc(-c3ccc(F)cc3)[nH]c2n1,GI50,MDA-N,25 µM
same,TGI,MDA-N,67.9 µM
C=CCC1=C2CCCCC2CCC1=O (stereo unspecified),TGI,DLD-1 colon,> 100 µM
same,TGI,DMS 114 small cell lung,> 100 µM
same,TGI,LXFL 529 NSCLC,> 100 µM
same,TGI,M19-MEL melanoma,> 100 µM
same,TGI,RXF-631 renal,> 100 µM
O=C(Cc1c(C(=O)Nc2ccccc2)sc(C(=O)Nc2ccccc2)c1CC(=O)Nc1ccccc1)Nc1ccccc1,TGI,DLD-1 colon,> 100 µM
same,TGI,DMS 114 small cell lung,> 100 µM
same,TGI,HOP-18 NSCLC,> 100 µM
same,TGI,LXFL 529 NSCLC,> 100 µM
same,TGI,M19-MEL melanoma,> 100 µM
OCC(O)COc1ccc(F)cc1 (stereo unspecified),TGI,DLD-1 colon,> 100 µM
same,TGI,DMS 114 small cell lung,> 100 µM
same,TGI,HOP-18 NSCLC,> 100 µM
same,TGI,LXFL 529 NSCLC,> 100 µM
same,TGI,M19-MEL melanoma,> 100 µM
O=P1(O)c2ccccc2CSCc2ccccc21,TGI,MDA-N,> 100 µM
CC1=CC=C2C(C)(C)CC[C@@H]3OC(=O)[C@H]1[C@]23C,TGI,DLD-1 colon,> 100 µM
same,TGI,DMS 114 small cell lung,> 100 µM
same,TGI,HOP-18 NSCLC,> 100 µM
same,TGI,LXFL 529 NSCLC,> 100 µM
same,TGI,M19-MEL melanoma,> 100 µM
same,TGI,RXF-631 renal,> 100 µM
Cc1ccc(S(=O)OC2c3ccccc3Cc3ccccc32)cc1 (stereo unspecified),TGI,DLD-1 colon,58.5 µM
same,TGI,DMS 114 small cell lung,34.8 µM
same,TGI,HOP-18 NSCLC,59.4 µM
same,TGI,LXFL 529 NSCLC,31.1 µM
same,TGI,M19-MEL melanoma,40.8 µM
same,TGI,RXF-631 renal,40.2 µM
CCOC(=O)c1cc2c(OC)cc(OC)cc2oc1=O,TGI,MDA-N,> 100 µM
COC(=O)CCC(=O)C(CC(=O)OC)C(=O)CCC(=O)NCCc1ccccc1 (stereo unspecified),TGI,HOP-18 NSCLC,> 100 µM
same,TGI,LXFL 529 NSCLC,> 100 µM
same,TGI,RXF-631 renal,> 100 µM
O=C(O)COc1ccc2c3c1C(=O)CCC3CO2 (stereo unspecified),TGI,DLD-1 colon,> 100 µM
same,TGI,DMS 114 small cell lung,> 100 µM
same,TGI,HOP-18 NSCLC,> 100 µM
same,TGI,LXFL 529 NSCLC,> 100 µM
same,TGI,M19-MEL melanoma,> 100 µM
CNC(=O)N(CCCC(NC(C)=O)C(=O)NCc1ccccc1)Cc1ccccc1 (stereo unspecified),TGI,DLD-1 colon,> 100 µM
same,TGI,DMS 114 small cell lung,> 100 µM
same,TGI,LXFL 529 NSCLC,> 100 µM
same,TGI,M19-MEL melanoma,> 100 µM
Cc1cc2c(=O)cc(-c3ccc(C(=O)O)cc3)oc2c(C(N)=O)c1C,TGI,DLD-1 colon,> 100 µM
same,TGI,DMS 114 small cell lung,> 100 µM
same,TGI,LXFL 529 NSCLC,> 100 µM
same,TGI,M19-MEL melanoma,> 100 µM
same,TGI,RXF-631 renal,> 100 µM
COc1ccc(C(=O)O[C@@H]2CCN3CC[C@H](C)[C@H]23)cc1,TGI,MDA-N,> 100 µM
O=C1C2=C(c3ccccc31)C(c1ccccc1Cl)NC(=S)N2 (stereo unspecified),TGI,DLD-1 colon,> 100 µM
same,TGI,LXFL 529 NSCLC,> 100 µM
same,TGI,M19-MEL melanoma,> 100 µM
